Among the data in ChEMBL document CHEMBL4043248, “Structure-activity relationship study of β-oxidation resistant indole-based 5-oxo-6,8,11,14-eicosatetraenoic acid (5-oxo-ETE) receptor antagonists” (Bioorg Med Chem Lett, 2017) are IC50 values, retold here.

In the assay the target is Oxoeicosanoid receptor 1 (Homo sapiens, UniProt Q8TDS5). Put plainly: Antagonist activity at OXE receptor in human neutrophils assessed as inhibition of 5-oxo-ETE-induced calcium mobilization incubated for 2 mins followed by 5-oxo-ETE addition measured after 1 min by fluorescence assay. In kind it is functional. (Calcium flux is commonly read through the fluorescence of an indicator in the cells.)
Chain of Oxoeicosanoid receptor 1 (Q8TDS5 whole entry): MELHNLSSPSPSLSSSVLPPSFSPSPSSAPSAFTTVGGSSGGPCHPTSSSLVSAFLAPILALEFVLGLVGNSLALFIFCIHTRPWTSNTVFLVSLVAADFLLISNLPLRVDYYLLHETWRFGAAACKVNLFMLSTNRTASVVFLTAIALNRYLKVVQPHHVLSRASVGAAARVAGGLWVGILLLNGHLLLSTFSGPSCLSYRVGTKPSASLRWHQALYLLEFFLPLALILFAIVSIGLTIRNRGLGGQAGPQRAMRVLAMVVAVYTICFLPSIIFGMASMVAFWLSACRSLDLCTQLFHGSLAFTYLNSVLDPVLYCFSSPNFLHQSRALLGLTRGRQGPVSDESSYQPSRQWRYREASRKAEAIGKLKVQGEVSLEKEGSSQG

Usually IC50 stands for the concentration needed to halve the response being measured. As to `CCCCCCc1c(C(=O)CC(C)CC(=O)O)c2cc(Cl)ccc2n1C` (stereo unspecified), the half-inhibitory concentration (IC50) is 16 to 20 nM. For the compound `CCCCCCc1c(C(=O)C[C@@H](C)CC(=O)O)c2cc(Cl)ccc2n1C`, the IC50 was found to be 2700 nM. For `CCCCCCc1c(C(=O)C(C)(C)CCC(=O)O)c2cc(Cl)ccc2n1C`, the half-inhibitory concentration (IC50) came out at 8150 nM.

`CCCCCCc1c(C(=O)c2cccc(C(=O)O)c2)c2cc(Cl)ccc2n1C`: the half-inhibitory concentration (IC50) was found to be 1120 nM. Turning to `CCCCCCc1c(C(=O)CC(C)(C)CC(=O)O)c2cc(Cl)ccc2n1C`, the IC50 was found to be 1330 nM.

Regarding `CCCCCCc1c(C(=O)CC2(CC(=O)O)CC2)c2cc(Cl)ccc2n1C`, the IC50 is 580 nM. Turning to `CCCCCCCCCCCc1c(C(=O)CC(C)CC(=O)O)c2cc(Cl)ccc2n1C` (stereo unspecified), the IC50 stood at 23 nM. In the case of `CCCCCCc1c(C(=O)c2ccc(C(=O)O)cc2)c2cc(Cl)ccc2n1C`, the IC50 was 1360 nM. Under `CCCCCCc1c(C(=O)CC2(CC(=O)O)CCC2)c2cc(Cl)ccc2n1C` stands 720 nM. As to `CCCCCCc1c(C(=O)COCC(=O)O)c2cc(Cl)ccc2n1C`, the half-maximal inhibitory concentration (IC50) is 5500 nM.

In the case of `CCCCCCc1c(C(=O)CCC(C)(C)C(=O)O)c2cc(Cl)ccc2n1C`, the IC50 is 4060 nM.
